Measurements: US9592213B2, “Prophylactic and/or therapeutic agent for dysmenorrhea” (National University Corporation Kumamoto University, priority 2009, dated 2017)
Entries after “also recorded” stand apart in the source; their conditions may differ.

What was measured:
EM-E6/E7/hTERT cells = assay: Example B2: western blotting of fibronectin and N-cadherin expression in endometrial epithelial cells; format: cell-based; settings: tranilast 320 μM, 80 μM, 20 μM with TGFβ2 5 ng/ml, TNFα 100 ng/ml or both, 48 hours
Description: Cell line EM-E6/E7/hTERT cells (EM) derived from endometrial epithelium were disseminated in a 6-well glass plate (EZView Culture Plate, LB Cover Glass Bottom, 6 wells, Iwaki) at 1×10^5 cells/well, followed by culturing for 2 days at 37° C. in an environment having a carbon dioxide concentration of 5% in DMEM/F12 medium and in the presence of 10% serum, and then culturing for 3 days after replacing the medium with serum-free DMEM/F12 medium.
Subsequently, tranilast (320 μM, 80 μM, 20 μM) was added to medium containing TGFβ2 at 5 ng/ml, TNFα at 100 ng/ml or both followed by replacing the medium. Protein was recovered 48 hours after having replaced the medium with the medium containing TGFβ2 or TNFα, and expression levels of fibronectin and N-cadherin were compared by western blotting.
Anti-fibronectin antibody (clone ID: F14, Epitomics) and anti-N-cadherin antibody (clone ID: 32/N-cadherin, BD Transduction Laboratories) were used for the antibodies.

[1] = Clinical study of therapeutic effect of oral administration of tranilast in dysmenorrhea patients; format: in vivo, human
Description: Subject A was given 100 mg of tranilast three times a day by oral administration (300 mg per day, divided three times daily) daily for about six months starting on Sep. 1, 2008.
Menstrual pain was measured according to a numerical rating scale (NRS). In the NRS, the patient was asked to evaluate and record the degree of pain by themself by judging the degree of pain according to 11 levels ranging from level 0 indicating the absence of pain to level 10 indicating maximum pain. Menstrual blood loss was evaluated according to 5 levels ranging from level 0 indicating the absence of blood loss up to level 4 as blood loss increased.
The term “average” in the graphs indicates a value obtained by dividing the total sum of the pain level for each menstrual period by the number of days on which pain was felt.
The term “max” indicates a value of the day when the most intense pain was felt during each menstrual period.
Pain during menstruation was evaluated by the record made for each day by the patient according the 11 levels from level 0 indicating the absence of pain to level 10 indicating maximum pain in the same manner as Subjects A and B, using the NRS method.
The average values and maximum values of NRS scores indicating the intensity of pain during each menstrual period were derived, and the values were compared between the menstrual period at the start of administration and the last menstrual period during the administration period as shown in graphs of FIGS. 8A and 9A. In addition, the degrees of decrease in average values and maximum values for menstrual pain during the last menstrual period relative to the first menstrual period at the start of administration were represented as improvement rates, and are shown in FIGS. 8B and 9B.
Moreover, Subjects A, C, D, E, F and G, but excluding Subject B, underwent examinations at the facility conducting the clinical study at roughly one month intervals during the administration period, and were interviewed by a specialist in the department of gynecology. Interview findings before the start of administration and interview findings at the time of their final visit were compared and are shown in FIG. 10.

[2] = continuous infusion for 3.5 days at 7.5 mg/kg, normal adult; cited from earlier work
[3] = test system: Immortalized human retinal pigment epithelial cell line ARPE-19; assay: Example B1: transition of cell morphology from mesenchymal form to epithelial form after TGFβ2 and TNFα; format: cell-based; settings: tranilast 1 μg/ml added 48 hours after TGFβ2 5 ng/ml and TNFα 100 ng/ml, read after 96 hours
Description: Immortalized human retinal pigment epithelial cell line ARPE-19 (ATCC No.: CRL-2302) was disseminated into a 96-well glass plate (EZView Culture Plate, LB Cover Glass Bottom, 96 wells, Iwaki) at 1×10^4 cells/well followed by culturing at 37° C. in a 5% CO2 environment. After 5 days, 150 μl aliquots each of DMEM-F12 (serum-free, Sigma-Aldrich) medium supplemented by 5 ng/ml of TGFβ2 and 100 ng/ml of TNFα were prepared and used to replace the original medium in the wells and cultured at 37° C. in a 5% CO2 environment.
After 48 hours, the plate was removed from the incubator followed by the addition of tranilast (1 μg/ml) and culturing at 37° C. in a 5% CO2 environment. After 96 hours, the plate was washed with PBS and the cells were fixed for 30 minutes with 4% paraformaldehyde (Wako), and after washing with PBS, were stained for 1 hour with F-actin (Alexa Fluor 568 Phalloidin, Invitrogen) and nuclei (Hoechst 33342, Invitrogen) followed by washing with PBS and then immediately photographing using a fluorescence microscope (Keyence) at a magnification factor of 40×.

[4] = cited from earlier work
[5] = Patient history: adverse effects of earlier drugs in study subjects; format: in vivo, human; settings: Subject I, administration from Mar. 18, 2010
[6] = Subject A, organic dysmenorrhea, 100 mg three times a day orally, about six months
[7] = Subject B, August menstrual period, 100 mg/day
[8] = Subject B, September menstrual period, 200 mg/day
[9] = Subject B, after start of administration
[10] = Subject B, functional dysmenorrhea, 100-200 mg/day orally, about six months

Structure (SMILES): COc1ccc(C=CC(=O)Nc2ccccc2C(=O)O)cc1OC [Tranilast, N-(3,4-dimethoxycinnamoyl) anthranilic acid]
- expression level of N-cadherin (EM-E6/E7/hTERT cells): inhibited the expression
- expression level of fibronectin (EM-E6/E7/hTERT cells): inhibited the expression
- lower abdominal pain and lower back pain during menstruation (NRS scores) [1, 6]: trend of decrease; also recorded: effects of alleviating lower abdominal pain and lower back pain were observed
- menstrual blood loss [1, 6]: trend of decrease
- adverse side effects from taking tranilast ([1]; Subject B): no adverse side effects
- menstrual blood loss [1, 7]: remained high
- menstrual pain [1, 7]: less menstrual pain
- pain and blood loss sensed by patient ([1]; Subject B, December, 100 mg/day): reduced pain and blood loss
- menstrual blood loss [1, 8]: Reduction
- menstrual pain [1, 8]: Reduction
- duration of menstruation [1, 9]: decreased significantly
- symptoms of menorrhagia [1, 9]: clearly improved
- lower abdominal pain and lower back pain during menstruation (NRS scores) [1, 10]: clearly decrease; also recorded: decrease significantly
- menstrual blood loss [1, 10]: clearly decrease; also recorded: decreased significantly
- pain at menstrual period ([1]; Subject H, organic dysmenorrhea, 100 mg three times per day orally, roughly one month): Pain diminished
- need for analgesic ([1]; Subject H, roughly one month after beginning administration): no longer need to take an analgesic
- menstrual pain and chronic pelvic pain when not menstruating (interview findings) ([1]; Subject I, examination Jun. 4, 2010): diminished and no longer interfered with their job
- pain at first menstrual period after beginning administration ([1]; Subject I, organic dysmenorrhea, 100 mg three times per day orally): the pain diminished
- analgesic use at first menstrual period after beginning administration ([1]; Subject I, before: multiple days with four analgesic tablets per day): one tablet of analgesic per day for 3 days
- pain during menstruation, last menstrual period of administration vs menstrual period at start (NRS average and maximum) ([1]; Subjects A, B, C, D, E, F and G): prominent decreases
- interview findings by gynecological specialist on menstrual pain, final visit vs before start ([1]; Subjects A, C, D, E and F): menstrual pain diminished
- Cmax [2]: 2200 ng/mL
- cell morphology [3]: exhibited an epithelial form
- foci formed after TGFβ2 and TNFα [3]: alleviated
- solubility in 1,4-dioxane ([4]; 1,4-dioxane): soluble
- solubility in N,N-dimethylformamide ([4]; N,N-dimethylformamide): freely soluble
- solubility in diethyl ether ([4]; diethyl ether): very slightly soluble
- solubility in ethanol ([4]; ethanol): slightly soluble
- solubility in water ([4]; water): practically insoluble

Structure (SMILES): C[C@]12CCC3=C4CCC(=O)C=C4CC[C@H]3[C@@H]1CC[C@@]2(O)CC#N [dienogest]
- adverse effect in patient history leading to discontinuation [5]: persistent abnormal genital bleeding
